Measured values: patent US8501775B2, “Anthelmintics for preventing parasitic infections in humans and animals” (SALTIGO GmbH, priority 2000, dated 2013)

System: Schistosoma mansoni cercariae
Assay: Activity against Schistosoma mansoni cercariae (survival/mobility observed with a stereomagnifier)
Design: key: no effect during the entire test period of 120 minutes; 1: weak effect (the cercariae have a strongly reduced mobility); 2: good effect (the cercariae are only slightly mobile and bent); 3: full effect (the cercariae are completely immobile)
Conditions: 500 μl/l final concentration of the active compounds; test period of 120 minutes
Method: Activity Against Schistosoma mansoni Cercariae
Snails (Biomphalaria glabrata) were infected by incubating each of them with 8 miracidia in 10 ml of water overnight. About 6 to 9 weeks after the infection, cercariae were obtained by irradiating the snails, which had been kept in darkness, with light, followed by collection of the swarming cercariae within 2 hours.
Such an amount of cercariae-containing water (1 or 2 ml, see below) was added to the test batches that each batch contained about 100 to 150 cercariae.
9 ml of aquarium water was then added, and the batch was shaken vigorously. After (delayed) addition of 1 ml of cercariae suspension, survival of the cercariae was in each case observed immediately using a stereomagnifier.

| SMILES | Assessment |
| --- | --- |
| CCCCOC(=O)N(C)CCCO | 1 |
| CCC(C)COC(=O)N(C)CCCO (stereo not shown) | 1 |
| CC(C)(C)OC(=O)N1CCCCC1CCO (stereo not shown) | 3 |
| C=CCCOC(=O)N(C)CCCO | 2 |
| C=CCOC(=O)N1CCCCC1CCO (stereo not shown) | 3 |
| CCCCOC(=O)N1CCCCC1CCO (stereo not shown) | 3 |
| CN(CCCO)C(=O)OC1CCCCC1 | 1 |
| CCC(C)OC(=O)N1CCCCC1CCO (stereo not shown) | 2 |

System: cercariae of Schistosoma mansoni
Assay: not given
Conditions: topical, monkeys; literature statement; cited from earlier work

| SMILES | action against the penetration of cercariae |
| --- | --- |
| O=C(Nc1ccc([N+](=O)[O-])cc1Cl)c1cc(Cl)ccc1O [Niclosamide] | acts against the penetration of cercariae |

System: not given
Assay: not given
Conditions: literature / regulatory statement; cited from earlier work

| SMILES | toxicity / hazard |
| --- | --- |
| O=C(Nc1ccc([N+](=O)[O-])cc1Cl)c1cc(Cl)ccc1O [Niclosamide] | may possibly cause inheritable genetic damage |
| Oc1c(Cl)cc(Cl)c(Cl)c1Cc1c(O)c(Cl)cc(Cl)c1Cl [hexachlorophene] | toxic on contact with the skin and when swallowed |

System: cercariae of Schistosoma mansoni
Assay: not given
Conditions: literature statement; cited from earlier work

| SMILES | effect on cercariae of Schistosoma mansoni |
| --- | --- |
| CCN(CC)C(=O)c1cccc(C)c1 [DEET, N,N-Diethyl-m-toluamide] | acts against cercariae |
| Oc1c(Cl)cc(Cl)c(Cl)c1Cc1c(O)c(Cl)cc(Cl)c1Cl [hexachlorophene] | lethal effect |
